Assay results published in patent publication EP4606801A1, “FUSED HETEROCYCLIC COMPOUND AND USE THEREOF” (Chengdu Zenitar Biomedical Technology Co., Ltd., priority 2022, dated 2024).
Where “and” joins values, the source holds several entries; their conditions need not be identical. Identical values can stand only once. Like-named read-outs stand apart in the source and are kept apart here.

How the values were obtained:
[1] = molecular target: T1, PARP5A (Homo sapiens, UniProt O95271); test: Determination of PARP5A enzyme (histone-coated plate, Biotin-NAD+); format: biochemical
T1 construct: purchased BPS 80504
T1 sequence (O95271 1001-1327): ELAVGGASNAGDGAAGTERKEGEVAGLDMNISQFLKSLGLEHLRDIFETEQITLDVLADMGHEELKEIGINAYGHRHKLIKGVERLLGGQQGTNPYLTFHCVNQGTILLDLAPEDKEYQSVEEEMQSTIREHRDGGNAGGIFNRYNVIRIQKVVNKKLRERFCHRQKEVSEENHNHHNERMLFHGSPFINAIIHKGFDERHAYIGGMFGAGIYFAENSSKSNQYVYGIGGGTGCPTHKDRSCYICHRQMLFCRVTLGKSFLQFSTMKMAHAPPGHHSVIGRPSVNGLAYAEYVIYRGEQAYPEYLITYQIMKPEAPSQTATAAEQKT
Description: • 1.3.1 Preparation of buffer solution solution: PBST: 1x PBS, 0.05% Tween-20; blocking solution: 1x PBS, 0.05% Tween-20, 5% BSA; reaction buffer solution: 50 mM HEPES (pH 7.5), 0.002% Tween-20, 0.1% BSA, 100 mM NaCl, 2mM DTT. • 1.3.2 Coating: A 100 ng/mL Histone coating solution was prepared by using 1x PBS, 25 uL of the coating solution was transferred to a 384-well reaction plate, and the reaction plate was coated overnight at 4°C. • 1.3.3 Washing: After the coating was completed, the coating solution was discarded, and the reaction plate was washed with the PBST solution by means of transferring 50uL of the PBST solution to the 384-well reaction plate, letting it stand for 5 min, discarding the washing solution, refilling the reaction plate with the PBST solution, and repeating the washing process 3 times. Finally, the reaction plate was tapped dry and the next step of blocking was proceeded with. • 1.3.4 Blocking: 50 uL of the blocking solution was transferred to the 384-well reaction plate and set for 1 h. • 1.3.5 Washing: After the blocking was completed, the blocking solution was discarded, the reaction plate was washed 3 times with the PBST solution according to the method in Step 2, and the reaction plate was tapped dry. • 1.3.6 A 25/10× PARP5A solution was prepared, then 10 µL of the PARP5A solution was transferred to the 384-well reaction plate. For negative control wells, 10 µL of the reaction buffer solution instead was transferred, resulting in the final concentration of PARP5A of 10 nM. • 1.3.7 A 2,000x compound was prepared, 50 nL of the compound was transferred to with echo, 19.95 uL of the reaction buffer solution was added into the compound, mix well, and 5 uL of the mixed compound was transferred to the 384-well reaction plate. • 1.3.8 A 25/10x Biotin-NAD+ solution was prepared, 10uL of the Biotin-NAD+ solution was transferred to the 384-well reaction plate, resulting in a final Biotin-NAD+ concentration of 2uM, and incubated at room temperature for 60 min. • 1.3.9 Washing: After the reaction was completed, the reaction liquid was discarded. The reaction plate was washed 3 times with the PBST solution according to the method in Step 2, and the reaction plate was tapped dry. • 1.3.10 A Stre-HRP solution was prepared by means of diluting it with the blocking solution, 25uL of the Stre-HRP solution was transferred to the reaction plate, and incubated at room temperature for 1 h, resulting the final concentration of Stre-HRP of 0.1 µg/mL. • 1.3.11 Washing: The Stre-HRP solution was discarded, the reaction plate was washed 3 times with the PBST solution according to the method in Step 2, and the reaction plate was tapped dry. • 1.3.12 Color developing: Femto-ECL Substrate A, Femto-ECL Substrate B, and QuantaRed ADHP were mixed in a 50:50:1 ratio.

[2] = tested on: BRCA wild-type DLD-1 cells; test: Anti-proliferative activity assay of cell (CCK8), DLD-1; format: cell-based; conditions: Homo sapiens; BRCA wild-type DLD-1 cells, 72 h + 96 h, CCK8; read-out: DLD-1 IC50
[3] = molecular target: T2, PARP2 (Homo sapiens, UniProt Q9UGN5); test: Determination of PARP2 enzyme (histone-coated plate, Biotin-NAD+); format: biochemical; conditions: read-out: PARP-2 IC50
T2 construct: purchased BPS 80502
T2 sequence (Q9UGN5 whole entry): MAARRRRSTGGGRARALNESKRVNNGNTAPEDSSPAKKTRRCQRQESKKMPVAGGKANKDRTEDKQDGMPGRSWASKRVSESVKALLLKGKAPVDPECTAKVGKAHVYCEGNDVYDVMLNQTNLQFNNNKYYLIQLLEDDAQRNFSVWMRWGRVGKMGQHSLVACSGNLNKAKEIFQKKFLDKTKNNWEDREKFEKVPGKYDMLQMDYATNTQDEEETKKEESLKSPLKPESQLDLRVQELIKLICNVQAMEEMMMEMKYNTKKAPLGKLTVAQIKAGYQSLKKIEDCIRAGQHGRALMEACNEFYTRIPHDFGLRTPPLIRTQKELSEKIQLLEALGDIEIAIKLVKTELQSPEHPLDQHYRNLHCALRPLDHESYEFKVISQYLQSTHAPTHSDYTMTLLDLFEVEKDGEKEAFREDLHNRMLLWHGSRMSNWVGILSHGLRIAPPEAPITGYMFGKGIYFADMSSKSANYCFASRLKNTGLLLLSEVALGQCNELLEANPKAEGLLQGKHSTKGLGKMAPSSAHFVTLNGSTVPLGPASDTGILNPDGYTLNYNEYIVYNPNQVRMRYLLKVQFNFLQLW
Description: • 1.2.1 Preparation of buffer solution: PBST: 1x PBS, 0.05% Tween-20; blocking solution: 1x PBS, 0.05% Tween-20, 5% BSA; reaction buffer solution: 50 mM HEPES (pH 7.5), 0.002% Tween-20, 0.1% BSA, 100 mM NaCl, 2mM DTT. • 1.2.2 Coating: A 100 ng/mL Histone coating solution was prepared by using 1x PBS, 25 uL of the coating solution was transferred to a 384-well reaction plate, and the reaction plate was coated overnight at 4°C. • 1.2.3 Washing: After the coating was completed, the coating solution was discarded, and the reaction plate was washed with the PBST solution by means of transferring 50uL of the PBST solution to the 384-well reaction plate, letting it stand for 5 min, discarding the washing solution, refilling the reaction plate, and repeating the washing process 3 times. Finally, the reaction plate was tapped dry and the next step of blocking was proceeded with. • 1.2.4 Blocking: 50 uL of the blocking solution was transferred to the 384-well reaction plate and set for 1 h. • 1.2.5 Washing: After the blocking was completed, the blocking solution was discarded, the reaction plate was washed 3 times with the PBST solution according to the method in Step 2, and the reaction plate was tapped dry. • 1.2.6 A 25/10× PARP2 solution was prepared, then 10 µL of the PARP2 solution was transferred to the 384-well reaction plate.

[4] = molecular target: PARP1 (Homo sapiens, UniProt P09874); test: Determination of PARP1 enzyme (histone-coated plate, chemiluminescence); format: biochemical
Sequence of PARP1 (P09874 whole entry): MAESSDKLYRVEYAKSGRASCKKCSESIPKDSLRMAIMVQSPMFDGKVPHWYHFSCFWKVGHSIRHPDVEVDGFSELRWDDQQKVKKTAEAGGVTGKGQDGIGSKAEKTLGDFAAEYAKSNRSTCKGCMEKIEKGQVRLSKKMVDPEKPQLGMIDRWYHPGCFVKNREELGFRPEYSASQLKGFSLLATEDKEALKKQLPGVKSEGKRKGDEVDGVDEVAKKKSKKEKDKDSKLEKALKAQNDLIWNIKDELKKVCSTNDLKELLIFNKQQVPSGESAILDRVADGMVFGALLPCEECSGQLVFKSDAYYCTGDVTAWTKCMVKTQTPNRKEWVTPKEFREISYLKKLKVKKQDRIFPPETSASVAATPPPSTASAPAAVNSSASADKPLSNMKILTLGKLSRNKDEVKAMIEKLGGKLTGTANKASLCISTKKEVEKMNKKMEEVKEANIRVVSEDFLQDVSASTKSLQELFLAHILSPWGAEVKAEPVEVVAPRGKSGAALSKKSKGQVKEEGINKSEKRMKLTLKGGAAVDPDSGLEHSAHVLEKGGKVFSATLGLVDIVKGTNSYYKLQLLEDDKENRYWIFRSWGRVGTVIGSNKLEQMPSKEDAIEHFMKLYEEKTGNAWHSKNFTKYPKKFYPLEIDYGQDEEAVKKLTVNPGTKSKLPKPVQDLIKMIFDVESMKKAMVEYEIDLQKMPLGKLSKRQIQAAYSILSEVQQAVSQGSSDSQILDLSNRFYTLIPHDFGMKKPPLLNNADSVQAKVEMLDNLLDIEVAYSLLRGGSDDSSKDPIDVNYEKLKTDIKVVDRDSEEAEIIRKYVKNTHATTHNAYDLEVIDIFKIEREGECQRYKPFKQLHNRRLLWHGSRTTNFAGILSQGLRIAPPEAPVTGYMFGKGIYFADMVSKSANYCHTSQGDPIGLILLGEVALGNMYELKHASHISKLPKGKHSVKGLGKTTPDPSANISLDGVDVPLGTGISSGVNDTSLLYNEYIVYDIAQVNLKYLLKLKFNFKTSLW

[5] = tested on: breast cancer MDA-MB-436; test: In-vivo pharmacodynamic study on subcutaneous xenograft tumor model of breast cancer MDA-MB-436; design: species or system NOD/SCID mice; conditions: 100 mg/kg orally once daily
Description: Strain: NOD/SCID; Grade: SPF; Source: Beijing Vitron River Bio-technology Co., Ltd.
The cells were washed 3 times with pre-cooled PBS, centrifuged at 300 g for 10 min, collected, re-suspended in PBS, and counted with a blood cell counting chamber, and the cell concentration was adjusted. After cell collection, the cell suspension was pre-cooled on ice. 100 µL of the cell suspension was administered via subcutaneous injection into the dorsal flank of the mice, and the grouped treatment was started when the tumor volume reached 200-300 mm^3.
General observation: Observation of animals: all live experimental animals to be observed; Observation time: twice a day; Observation items: including but not limited to general performance, behavioral status, eyes, mouth, nose and mouth, ears, hair, stool, urine, genitalia and other toxic symptoms; If abnormalities are observed, provide a detailed description.
Animal assay: all viable experimental animals scheduled for assay; Assay time: All animals were weighed before the modeling for test grouping. After modeling, the mice were weighed once every 2 days, and the weight change of the mice was recorded in real time. Effective criteria: tumor volume (TV), relative tumor volume (RTV) and relative tumor growth rate of subcutaneously implanted tumor model. […] The calculation formula of tumor volume (TV) was: TV (mm^3) = a×b2×0.5, where a and b were the long diameter and short diameter, respectively.
The evaluation index for anti-tumor activity was the relative tumor growth rate T/C (%), and the calculation formula was as follows: T/C(%) = TRTV/CRTV × 100%; [formula]
Where, TRTV is relative tumor volume of the treatment group; CRTV is relative tumor volume of the negative control group. Therapeutic evaluation criteria: T/C (%)> 60 is considered ineffective; T/C (%) ≤ 60, and P < 0.05 (through statistical analysis) is considered effective. Measurement of tumor weight and tumor inhibition rate (%): At the end of the treatment period, the animals were euthanize, tumor masses dissected and isolated, tumors weighed, and photographs took. The tumor inhibition rate (%) was calculated by the formula below: [formula]
All raw data within the facility were collected manually according to the experimental scheme and the relevant guidelines of the research institution, or gathered by using a data acquisition system. Manually collected data can be transcribed into software such as Excel for analysis and reporting. The data from each group were quantitative, and the experimental data for each group of animals in the tables were expressed as mean ± standard deviation (Mean ± SD). In the figures, the experimental data ware described as mean ± standard error of the mean (Mean ± SEM). Statistical analysis, including t-tests and survival analysis, was performed by using the software such as EXCEL and GraphPad Prism.
After 24 days of administration, the tumor-bearing mice were anesthetized and euthanized. The tumor tissues were dissected, weighed, and photographed, and the tumor inhibition rate was calculated.

[6] = Pharmacokinetic evaluation of compound in Balb/c mice; format: in vivo; conditions: 1 mg/kg, PO; for AUC(0-t) / Cmax / half-life: male, mouse, plasma
Description: Sample preparation: About 0.2 mg of the compound was dissolved in 10 µL DMSO, then a sodium chloride injection was added to make a 0.1 mg·mL^-1 solution of the compound for administration.
Three mice were administered the compound intravenously (IV) at a dose of 1 mg·kg^-1, and the other three were administered the compound orally (PO) at the same dose. […] The plasma concentration of the drug was quantitatively analyzed with the LC-MS/MS method, and pharmacokinetic parameters were calculated, including the […] (Cmax), area under the concentration-time curve (AUC(0-t)), half-life (T1/2), clearance (CL), volume of distribution at steady state (Vdss), and bioavailability (F).

Row | SMILES | IC50 [2] | IC50 [3] | IC50 ([1]; read-out: PARP-5a IC50) | Vdss [6] | AUC(0-t) [6] | Cmax [6] | half-life [6] | further results
1 | [2H]C([2H])([2H])C([2H])([2H])c1nc2ccc(CN3CC=C(c4ccc(C(=O)NC)nc4)CC3)c(F)c2[nH]c1=O [Compound 13, 1'-((2-(ethyl-d5)-5-fluoro-3-oxo-3,4-dihydroquinoxalin-6-yl)methyl)-N-methyl-1',2',3',6'-tetra hydro-[3,4'-bipyridine]-6-carboxamide] | > 10 µM | > 1 µM | – | – | – | – | – | IC50 [1]: > 1 µM; PARP-1 inhibition ratio [4]: 96.1% and 98.5%
2 | [2H]C([2H])([2H])C([2H])([2H])c1nc2ccc(CN3CC=C(c4ccc(C(=O)NC)nc4F)CC3)c(F)c2[nH]c1=O [Compound 14, 1'-((2-(ethyl-d5)-5-fluoro-3-oxo-3,4-dihydroquinoxalin-6-yl)methyl)-2-fluoro-N-methyl-1',2',3 '6'-tetrahydro-[3,4'-bipyridine]-6-carboxamide] | > 10 µM | > 1 µM | > 1 µM | – | – | – | – | PARP-1 inhibition ratio ([4]; 10 nM): 98.9%; PARP-1 inhibition ratio ([4]; 100 nM): 99.1%
3 | [2H]C([2H])([2H])Cc1cc2ncc(CN3CC=C(c4ccc(C(=O)NC)nc4)CC3)cc2[nH]c1=O [Compound 16, 1'-((7-(ethyl-2,2,2-d3)-6-oxo-5,6-dihydro-1,5-naphthyridin-3-yl)methyl)-N-methyl-1',2',3',6'-t etrahydro-[3,4'-bipyridine]-6-carboxamide] | – | > 1 µM | > 1 µM | – | – | – | – | –
4 | O=C(c1cc(Cc2n[nH]c(=O)c3ccccc23)ccc1F)N1CCN(C(=O)C2CC2)CC1 [Olaparib, reference compound] | – | – | – | – | – | – | – | RTV ([5]; 24 days): 2.2; Tumor inhibition rate (%) ([5]; 24 days): 62.19%; Tumor volume T/C% ([5]; 24 days): 33.4%; Tumor weight (g) X±SD ([5]; 24 days): 0.82 ± 0.39 g; Body weight (g) X±SD End ([5]; End, 24 days): 21.7 ± 1.4 g; Tumor volume (mm^3) X±SD End ([5]; End, 24 days): 551.5±343.1 mm^3; Body weight (g) X±SD Start ([5]; Start): 21.9 ± 1.1 g; Tumor volume (mm^3) X±SD Start ([5]; Start): 250.7±70.0 mm^3
5 | [2H]C([2H])([2H])NC(=O)c1ccc(C2=CCN(Cc3cnc4cc(C([2H])([2H])C([2H])([2H])[2H])c(=O)[nH]c4c3)CC2)cn1 [Compound 11, 1'-((7-(ethyl-d5)-6-oxo-5,6-dihydro-1,5-naphthyridin-3-yl)methyl)-N (methyl-d3)-1',2',3',6'-tet rahydro-[3,4'-bipyridine]-6-carboxamide] | – | > 1 µM | > 1 µM | – | – | – | – | –
6 | [2H]C([2H])([2H])NC(=O)c1ccc(C2=CCN(Cc3cnc4cc(CC)c(=O)[nH]c4c3)CC2)c(F)n1 [Compound 10, 1'-((7-ethyl-6-oxo-5,6-dihydro-1,5-naphthyridin-3-yl)methyl)-2-fluoro-N-(methyl-d3)-1',2',3', 6'-tetrahydro-[3,4'-bipyridine]-6-carboxamide] | > 10 µM | – | – | 0.15 L/kg | 44600 ng·h/mL | 3840 ng/mL | 4.64 h | –
7 | [2H]C([2H])([2H])NC(=O)c1ccc(C2=CCN(Cc3cnc4cc(CC)c(=O)[nH]c4c3)CC2)c(C)n1 [Compound 8, 1'-((7-ethyl-6-oxo-5,6-dihydro-1,5-naphthyridin-3-yl)methyl)-2-methyl-N-(methyl-d3)-1',2',3', 6'-tetrahydro-[3,4'-bipyridine]-6-carboxamide] | – | – | – | 0.14 L/kg | 42300 ng·h/mL | 5010 ng/mL | 4.1 h | –
8 | [2H]C([2H])([2H])C([2H])([2H])c1cc2ncc(CN3CC=C(c4ccc(C(=O)NC5CC5)nc4)CC3)cc2[nH]c1=O [Compound 12, N-cyclopropyl-1'-((7-(ethyl-d5)-6-oxo-5,6-dihydro-1,5-naphthyridin-3-yl)methyl)-1',2',3',6'-tet rahydro-[3,4'-bipyridine]-6-carboxamide] | > 10 µM | > 1 µM | > 1 µM | 0.70 L/kg | 6950 ng·h/mL | 2290 ng/mL | 3.87 h | CL [6]: 2.5 mL/min/kg; PARP-1 inhibition ratio [4]: 99.8% and 99.9%
9 | [2H]C([2H])([2H])NC(=O)c1ccc(C2=CCN(Cc3ccc4nc(CC)c(=O)[nH]c4c3F)CC2)cn1 [Compound 4, 1'-((2-Ethyl-5-fluoro-3-oxo-3,4-dihydroquinoxalin-6-yl)methyl)-N-(methyl-d3)-1',2',3',6'-tetra hydro-[3,4'-bipyridine]-6-carboxamide] | > 10 µM | – | – | 0.14 L/kg | 122000 ng·h/mL | 7370 ng/mL | 11.5 h | CL [6]: 0.17 mL/min/kg
